Results as given in US12338243B2, “P2X7 modulators” (JANSSEN PHARMACEUTICA NV, priority 2014, dated 2025).

Experiments:
[1] = molecular target: T1, P2X7 (Homo sapiens, UniProt Q99572); experiment: Ca2+ flux (FLIPR) in 1321N1 cells expressing recombinant human P2X7 channel; format: cell-based; parameters: expressed in transfected cells; host or cells: 1321N1 cells; details: 250 μM BzATP
T1 sequence (Q99572 1-595): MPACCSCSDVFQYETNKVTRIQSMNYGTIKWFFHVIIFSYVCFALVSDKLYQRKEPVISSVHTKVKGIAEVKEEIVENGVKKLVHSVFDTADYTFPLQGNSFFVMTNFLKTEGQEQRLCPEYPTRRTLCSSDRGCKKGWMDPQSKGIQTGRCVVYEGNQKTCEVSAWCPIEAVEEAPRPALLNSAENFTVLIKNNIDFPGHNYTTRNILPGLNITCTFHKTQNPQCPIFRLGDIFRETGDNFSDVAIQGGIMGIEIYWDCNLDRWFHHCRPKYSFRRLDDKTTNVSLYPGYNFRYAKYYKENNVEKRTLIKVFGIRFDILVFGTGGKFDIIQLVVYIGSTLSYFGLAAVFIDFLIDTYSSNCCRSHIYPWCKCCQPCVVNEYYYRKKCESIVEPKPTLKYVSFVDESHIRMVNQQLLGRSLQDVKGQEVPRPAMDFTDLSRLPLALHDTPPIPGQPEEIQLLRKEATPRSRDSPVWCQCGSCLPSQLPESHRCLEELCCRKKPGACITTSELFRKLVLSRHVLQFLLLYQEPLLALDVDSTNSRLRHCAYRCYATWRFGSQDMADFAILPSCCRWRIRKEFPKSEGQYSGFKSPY
Description: P2X7 Antagonism in Recombinant Human P2X7 Cells or Recombinant Rat P2X7 Cells: (a) Ca^2+ Flux and (b) Radioligand Binding
(a) Ca^2+ flux: 1321N1 cells expressing the recombinant human or rat P2X7 channel was cultured in HyQ DME/(HyClone/Dulbecco's Modified Eagle Medium) high glucose supplemented with 10% Fetal Bovine Serum (FBS) and appropriate selection marker. Cells were seeded at a density of 25000 cells/well (96-well clear bottom black walled plates) in 100 μl volume/well. On the day of the experiment, cell plates were washed with assay buffer, containing (in mM): 130 NaCl, 2 KCl, 1 CaCl2), 1 MgCl2, 10 HEPES, 5 glucose; pH 7.40 and 300 mOs. After the wash, cells were loaded with the Calcium-4 dye (Molecular Device) and incubated in the dark for 60 minutes. Test compounds were prepared at 250× the test concentration in neat DMSO. Intermediate 96-well compound plates were prepared by transferring 1.2 μL of the compound into 300 μL of assay buffer. A further 3× dilution occurred when transferring 50 μL/well of the compound plate to 100 μL/well in the cell plate. Cells were incubated with test compounds and dye for 30 minutes. […] The fluorescence change was measured 180 seconds after adding the agonist.

[2] = molecular target: T2, rat P2X7 (Rattus norvegicus, UniProt Q64663); experiment: Ca2+ flux (FLIPR) in 1321N1 cells expressing recombinant rat P2X7 channel; details: FLIPR (rat) IC50 (μM), 250 μM BzATP
T2 sequence (Q64663 1-595): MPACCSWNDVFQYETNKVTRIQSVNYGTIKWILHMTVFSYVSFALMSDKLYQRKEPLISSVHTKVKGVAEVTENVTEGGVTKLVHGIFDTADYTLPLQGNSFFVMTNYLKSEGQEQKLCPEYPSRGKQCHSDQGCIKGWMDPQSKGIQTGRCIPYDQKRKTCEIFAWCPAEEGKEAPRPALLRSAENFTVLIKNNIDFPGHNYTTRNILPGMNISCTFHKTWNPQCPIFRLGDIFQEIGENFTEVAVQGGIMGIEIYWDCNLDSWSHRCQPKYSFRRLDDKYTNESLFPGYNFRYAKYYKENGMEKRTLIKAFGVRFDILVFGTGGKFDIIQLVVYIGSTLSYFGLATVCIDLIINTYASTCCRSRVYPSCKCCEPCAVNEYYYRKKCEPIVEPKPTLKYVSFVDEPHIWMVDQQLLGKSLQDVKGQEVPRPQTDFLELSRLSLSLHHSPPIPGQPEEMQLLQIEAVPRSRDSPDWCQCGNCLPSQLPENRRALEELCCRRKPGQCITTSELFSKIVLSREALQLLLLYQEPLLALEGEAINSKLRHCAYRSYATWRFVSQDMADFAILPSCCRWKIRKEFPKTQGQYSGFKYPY

[3] = Biodistribution studies of radiotracer in healthy female Wistar rats; format: in vivo; details: for % ID blood: blood mass assumed 7% of body mass; for SUV blood / % ID carcass / % ID cerebellum / SUV cerebellum / % ID cerebrum / SUV cortex / % ID heart / SUV hippocampus / % ID intestines / % ID kidneys / % ID liver / % ID lungs / SUV rest of cerebrum / % ID spleen + pancreas / % ID stomach / SUV striatum / % ID urine / SUV whole cerebrum: mean ± SD, n = 3; for % ID bone: calculated to estimated total bone tissue (% ID/g bone * body mass* 0.12)
Description: HPLC analysis was performed on a LaChrom Elite HPLC system (Hitachi, Armstadt, Germany) connected to a UV spectrometer set at 220 nm. For the analysis of radiolabeled compounds, the HPLC eluate, after passage through the UV detector, was led over a shielded 3-inch NaI(Tl) scintillation detector connected to a multichannel analyser (Gabi box, Raytest, Straubenhardt, Germany). The output signal was recorded and analysed using a GINA Star data acquisition system (Raytest, Straubenhardt, Germany). Radioactivity in samples of biodistribution studies, cell uptake experiments and radiometabolite analysis was quantified using an automated gamma counter equipped with a 3-inch NaI(Tl) well crystal coupled to a multichannel analyser (Wallac 2480 Wizard, Wallac, Turku, Finland). Results were corrected for background radiation, physical decay and counter dead time.
Animals were housed in individually ventilated cages in a thermoregulated (˜22° C.), humidity-controlled facility under a 12 h/12 h light/dark cycle with access to food and water ad libitum. All animal experiments were conducted according to the Belgian code of practice for the care and use of animals, after approval from the KU Leuven University Ethics Committee for Animals.
The biodistribution studies were performed in healthy female Wistar rats (body weight, 185-220 g) at 2, 30 and 60 min after tracer injection (n=3/time point). […] The animals were sacrificed by decapitation at the indicated time points. Blood and major organs were collected in tared tubes and weighed. The radioactivity in the dissected organs and blood was counted using an automated gamma counter. For calculation of total blood radioactivity, blood mass was assumed to be 7% of the body mass.

Cc1nnc2n1CCN(C(=O)c1cccc(C(F)(F)F)c1Cl)[C@@H]2c1ccc(F)cc1 [Example 114, (R)-(2-chloro-3-(trifluoromethyl)phenyl)(8-(4-fluorophenyl)-3-methyl-5,6-dihydro-[1,2,4]triazolo[4,3-a]pyrazin-7(8H)-yl)methanone]
IC50 [1]: 4.08 µM
IC50 [2]: > 10 µM

CC1c2nnc(-c3ccccn3)n2CCN1C(=O)c1cccc(Cl)c1Cl (centres unmarked) [Example 1, (2,3-dichlorophenyl)(8-methyl-3-(pyridin-2-yl)-5,6-dihydro-[1,2,4]triazolo[4,3-a]pyrazin-7(8H)-yl)methanone]
IC50 [2]: 1.21 µM

C[C@H]1Cn2c(nnc2-c2ncc(F)cn2)CN1C(=O)c1cccc(C(F)(F)F)c1Cl [Example 74]
IC50 [2]: 0.0101 µM

C[C@H]1Cn2c(nnc2-c2cc([18F])ccn2)CN1C(=O)c1cccc(Cl)c1Cl [[^18F]68, (S)-(2,3-dichlorophenyl)(3-(4-[^18F]fluoropyridin-2-yl)-6-methyl-5,6-dihydro-[1,2,4]triazolo[4,3-a]pyrazin-7(8H)-yl)methanone]
% ID blood ([3]; 2 min after tracer injection): 6.8 ± 0.6 % ID
SUV blood ([3]; 2 min after tracer injection): 0.97 ± 0.08
% ID blood ([3]; 30 min after tracer injection): 4.3 ± 0.3 % ID
SUV blood ([3]; 30 min after tracer injection): 0.61 ± 0.04
% ID blood ([3]; 60 min after tracer injection): 2.0 ± 0.5 % ID
SUV blood ([3]; 60 min after tracer injection): 0.29 ± 0.07
% ID bone ([3]; 2 min): 8.8 ± 0.8 % ID
% ID bone ([3]; 30 min): 44.5 ± 3.8 % ID
% ID bone ([3]; 60 min): 64.5 ± 5.9 % ID
% ID carcass ([3]; 2 min after tracer injection): 40.8 ± 0.8 % ID
% ID carcass ([3]; 30 min after tracer injection): 56.6 ± 2.8 % ID
% ID carcass ([3]; 60 min after tracer injection): 60.4 ± 2.3 % ID
% ID cerebellum ([3]; 2 min after tracer injection): 0.1 ± 0.0 % ID
SUV cerebellum ([3]; 2 min after tracer injection): 1.21 ± 0.22
% ID cerebellum ([3]; 30 min after tracer injection): 0.0 ± 0.0 % ID
SUV cerebellum ([3]; 30 min after tracer injection): 0.33 ± 0.07
% ID cerebellum ([3]; 60 min after tracer injection): 0.0 ± 0.0 % ID
SUV cerebellum ([3]; 60 min after tracer injection): 0.38 ± 0.08
% ID cerebrum ([3]; 2 min after tracer injection): 0.6 ± 0.0 % ID
% ID cerebrum ([3]; 30 min after tracer injection): 0.1 ± 0.0 % ID
% ID cerebrum ([3]; 60 min after tracer injection): 0.1 ± 0.0 % ID
SUV cortex ([3]; 2 min after tracer injection): 1.27 ± 0.13
SUV cortex ([3]; 30 min after tracer injection): 0.94 ± 0.29
SUV cortex ([3]; 60 min after tracer injection): 0.69 ± 0.17
% ID heart ([3]; 2 min after tracer injection): 0.9 ± 0.1 % ID
% ID heart ([3]; 30 min after tracer injection): 0.2 ± 0.0 % ID
% ID heart ([3]; 60 min after tracer injection): 0.1 ± 0.0 % ID
SUV hippocampus ([3]; 2 min after tracer injection): 1.11 ± 0.10
SUV hippocampus ([3]; 30 min after tracer injection): 0.23 ± 0.04
SUV hippocampus ([3]; 60 min after tracer injection): 0.19 ± 0.03
% ID intestines ([3]; 2 min after tracer injection): 10.6 ± 2.1 % ID
% ID intestines ([3]; 30 min after tracer injection): 20.9 ± 6.0 % ID
% ID intestines ([3]; 60 min after tracer injection): 11.2 ± 0.6 % ID
% ID kidneys ([3]; 2 min after tracer injection): 3.3 ± 0.5 % ID
% ID kidneys ([3]; 30 min after tracer injection): 1.1 ± 0.2 % ID
% ID kidneys ([3]; 60 min after tracer injection): 0.9 ± 0.1 % ID
% ID liver ([3]; 2 min after tracer injection): 34.6 ± 2.4 % ID
% ID liver ([3]; 30 min after tracer injection): 7.5 ± 0.6 % ID
% ID liver ([3]; 60 min after tracer injection): 3.61 ± 0.3 % ID
% ID lungs ([3]; 2 min after tracer injection): 1.6 ± 0.1 % ID
% ID lungs ([3]; 30 min after tracer injection): 0.7 ± 0.1 % ID
% ID lungs ([3]; 60 min after tracer injection): 0.6 ± 0.2 % ID
SUV rest of cerebrum ([3]; 2 min after tracer injection): 1.20 ± 0.11
SUV rest of cerebrum ([3]; 30 min after tracer injection): 0.31 ± 0.06
SUV rest of cerebrum ([3]; 60 min after tracer injection): 0.25 ± 0.04
% ID spleen + pancreas ([3]; 2 min after tracer injection): 1.3 ± 0.2 % ID
% ID spleen + pancreas ([3]; 30 min after tracer injection): 0.3 ± 0.1 % ID
% ID spleen + pancreas ([3]; 60 min after tracer injection): 0.2 ± 0.0 % ID
% ID stomach ([3]; 2 min after tracer injection): 1.5 ± 0.5 % ID
% ID stomach ([3]; 30 min after tracer injection): 1.6 ± 0.9 % ID
% ID stomach ([3]; 60 min after tracer injection): 10.7 ± 3.3 % ID
SUV striatum ([3]; 2 min after tracer injection): 1.19 ± 0.13
SUV striatum ([3]; 30 min after tracer injection): 0.24 ± 0.05
SUV striatum ([3]; 60 min after tracer injection): 0.19 ± 0.03
% ID urine ([3]; 2 min after tracer injection): 0.1 ± 0.0 % ID
% ID urine ([3]; 30 min after tracer injection): 8.4 ± 1.8 % ID
% ID urine ([3]; 60 min after tracer injection): 8.4 ± 1.8 % ID
SUV whole cerebrum ([3]; 2 min after tracer injection): 1.20 ± 0.11
SUV whole cerebrum ([3]; 30 min after tracer injection): 0.31 ± 0.06
SUV whole cerebrum ([3]; 60 min after tracer injection): 0.25 ± 0.04

C[C@H]1Cn2c(nnc2-c2ccc(F)cc2F)CN1C(=O)c1cccc(Cl)c1Cl [Example 50, (S)-(2,3-dichlorophenyl)(3-(2,4-difluorophenyl)-6-methyl-5,6-dihydro-[1,2,4]triazolo[4,3-a]pyrazin-7(8H)-yl)methanone]
IC50 [2]: 1.68 µM
